Results as given in ChEMBL document CHEMBL3994659, “Synthesis and antimicrobial evaluation of cationic low molecular weight amphipathic 1,2,3-triazoles” (Bioorg Med Chem Lett, 2017).
Activity calls are given as the source filed them. The calls are words filed in the database; no cut-off is given here.

Assays:
MRC5 = experiment: Cytotoxicity against human MRC5 cells at <50 ug/ml; format: cell-based
Escherichia coli [1] = experiment: microbe, parasite or virus in culture; settings: ATCC 25922
Description: Antibacterial activity against Escherichia coli ATCC 25922 after overnight incubation by photometric method

Streptococcus agalactiae = experiment: Antibacterial activity against Streptococcus agalactiae group B ATCC 12386 after overnight incubation by photometric method; format: functional
[2] = system: Staphylococcus epidermidis; experiment: Inhibition of biofilm formation in Staphylococcus epidermidis at 50 ug/ml after overnight incubation by crystal violet staining based method; format: functional
Staphylococcus aureus = experiment: Antibacterial activity against Staphylococcus aureus ATCC 25923 after overnight incubation by photometric method; format: functional
Enterococcus faecalis [3] = experiment: Antibacterial activity against Enterococcus faecalis ATCC 29212 after overnight incubation by photometric method; format: functional
Pseudomonas aeruginosa [4] = experiment: microbe, parasite or virus in culture; settings: ATCC 27853
Description: Antibacterial activity against Pseudomonas aeruginosa ATCC 27853 after overnight incubation by photometric method

Pseudomonas aeruginosa [5] = experiment: Antibacterial activity against Pseudomonas aeruginosa ATCC 27853 at 50 ug/ml after overnight incubation by photometric method; format: functional
Enterococcus faecalis [6] = experiment: Antibacterial activity against Enterococcus faecalis ATCC 29212 at 50 ug/ml after overnight incubation by photometric method; format: functional
Escherichia coli [7] = experiment: Antibacterial activity against Escherichia coli ATCC 25922 at 50 ug/ml after overnight incubation by photometric method; format: functional

| Compound | Activity (MRC5) | MIC (Streptococcus agalactiae) [µg/mL] | MIC (Staphylococcus aureus) [µg/mL] | further results |
| --- | --- | --- | --- | --- |
| CN(C)CCCc1cn(Cc2cc(C(F)(F)F)cc(C(F)(F)F)c2)nn1.Cl | Non-Toxic | – | – | – |
| Cl.NCCc1cn(Cc2cc(C(F)(F)F)cc(C(F)(F)F)c2)nn1 | Non-Toxic | – | – | – |
| Cl.N=C(N)NCCc1cn(Cc2cc(C(F)(F)F)cc(C(F)(F)F)c2)nn1 | Non-Toxic | – | – | – |
| Cl.N=C(N)NCCCc1cn(Cc2cc(C(F)(F)F)cc(C(F)(F)F)c2)nn1 | Non-Toxic | – | – | – |
| CN(C)CCCc1cn(Cc2ccc3ccccc3c2)nn1.Cl | Non-Toxic | – | – | – |
| CC(C)(C)c1cc(Cn2cc(CCNC(=N)N)nn2)cc(C(C)(C)C)c1.Cl | Non-Toxic | 10 | 20 | MIC (Escherichia coli [1]): 50 µg/mL; biofilm formation inhibition (active/not active) [2]: Active; MIC (Enterococcus faecalis [3]): 40 µg/mL; MIC (Pseudomonas aeruginosa [4]): 40 µg/mL |
| CN(C)CCc1cn(Cc2cc(C(F)(F)F)cc(C(F)(F)F)c2)nn1.Cl | Non-Toxic | – | – | – |
| GENTAMICIN | – | 4 | 0.13 | MIC (Enterococcus faecalis [3]): 10 µg/mL |
| Cl.N=C(N)NCCCc1cn(Cc2ccc3ccccc3c2)nn1 | Non-Toxic | – | – | biofilm formation inhibition (active/not active) [2]: Active |
| CC(C)(C)c1cc(Cn2cc(CCCNC(=N)N)nn2)cc(C(C)(C)C)c1.Cl | Non-Toxic | 10 | 10 | MIC (Escherichia coli [1]): 40 µg/mL; biofilm formation inhibition (active/not active) [2]: Active; MIC (Enterococcus faecalis [3]): 40 µg/mL; MIC (Pseudomonas aeruginosa [4]): 40 µg/mL |
| CN(C)CCCc1cn(Cc2ccccc2)nn1.Cl | Non-Toxic | – | – | – |
| CC(C)(C)c1cc(-n2cc(CCCN)nn2)cc(C(C)(C)C)c1.Cl | – | 16 | 16 | MIC (Escherichia coli [1]): 16 µg/mL; MIC (Enterococcus faecalis [3]): 32 µg/mL; MIC (Pseudomonas aeruginosa [4]): 32 µg/mL |
| CN(C)CCCc1cn(Cc2cc(C(C)(C)C)cc(C(C)(C)C)c2)nn1.Cl | Non-Toxic | 50 | 40 | Activity (Pseudomonas aeruginosa [5]): inactive; Activity (Enterococcus faecalis [6]): inactive; biofilm formation inhibition (active/not active) [2]: Active; Activity (Escherichia coli [7]): inactive |
| Cl.NCCCc1cn(Cc2cc(C(F)(F)F)cc(C(F)(F)F)c2)nn1 | Non-Toxic | – | – | – |
| Cl.N=C(N)NCCc1cn(Cc2ccc3ccccc3c2)nn1 | Non-Toxic | – | – | – |
| CC(C)(C)c1cc(-n2cc(CCCNC(=N)N)nn2)cc(C(C)(C)C)c1.Cl | – | 4 | 4 | MIC (Escherichia coli [1]): 16 µg/mL; MIC (Enterococcus faecalis [3]): 16 µg/mL; MIC (Pseudomonas aeruginosa [4]): 16 µg/mL |
| Cl.NCCCc1cn(Cc2ccc3ccccc3c2)nn1 | Non-Toxic | – | – | – |
| Cl.NCCCc1cn(Cc2ccccc2)nn1 | Non-Toxic | – | – | – |
| Cl.N=C(N)NCCc1cn(Cc2ccccc2)nn1 | Non-Toxic | – | – | – |
| Cl.NCCc1cn(Cc2ccc3ccccc3c2)nn1 | Non-Toxic | – | – | – |
| CN(C)CCc1cn(Cc2ccccc2)nn1.Cl | Non-Toxic | – | – | – |
| CC(C)(C)c1cc(Cn2cc(CCCN)nn2)cc(C(C)(C)C)c1.Cl | Non-Toxic | – | – | biofilm formation inhibition (active/not active) [2]: inactive |
| CC(C)(C)c1cc(Cn2cc(CCN)nn2)cc(C(C)(C)C)c1.Cl | Non-Toxic | 40 | 40 | MIC (Escherichia coli [1]): 40 µg/mL; Activity (Enterococcus faecalis [6]): inactive; biofilm formation inhibition (active/not active) [2]: Active; MIC (Pseudomonas aeruginosa [4]): 50 µg/mL |
| CN(C)CCc1cn(Cc2ccc3ccccc3c2)nn1.Cl | Non-Toxic | – | – | – |
| CCCCCCCOc1ccc(-n2cc(CCCNC(=N)N)nn2)cc1.Cl | – | 4 | 4 | MIC (Escherichia coli [1]): 8 µg/mL; MIC (Enterococcus faecalis [3]): 8 µg/mL; MIC (Pseudomonas aeruginosa [4]): 8 µg/mL |
| Cl.NCCc1cn(Cc2ccccc2)nn1 | Non-Toxic | – | – | – |
| CCCCCCCOc1ccc(-n2cc(CCCN)nn2)cc1.Cl | – | 8 | 16 | MIC (Escherichia coli [1]): 8 µg/mL; MIC (Enterococcus faecalis [3]): 16 µg/mL; MIC (Pseudomonas aeruginosa [4]): 16 µg/mL |
| CN(C)CCc1cn(Cc2cc(C(C)(C)C)cc(C(C)(C)C)c2)nn1.Cl | Non-Toxic | – | – | biofilm formation inhibition (active/not active) [2]: Active |
| Cl.N=C(N)NCCCc1cn(Cc2ccccc2)nn1 | Non-Toxic | – | – | – |
